In patent publication US20220304978A1, “INHIBITING MESANGIAL CELL ACTIVATION” (Chinook Therapeutics, Inc., priority 2019, published 2022):
Positions of bridges follow the written chain, without caps; N, C: chain ends. No end group written: not given here.

System: IL-6 production in primary human mesangial cells
Assay: ET-1 induced IL-6 production in HRMCs (ELISA)
Format: cell-based

ET-1: endothelin 1 (ET-1), used to stimulate primary human mesangial cells (CSCSSLMDKECVYFCHLDIIW; disulfide 1-15, 3-11; ends not checked; UniProt P05305 53-73, looked up)
increase in IL-6 production by primary human mesangial cells exposed to ET-1 (48 hours): ~6 fold
increase in IL-6 production by primary human mesangial cells exposed to ET-1 (72 hours): ~2.2 fold
